Counter-ions that a name gives are not always drawn.
Species on record: Rattus norvegicus
Test: Open TG-GATES - Regimen: Single
Type: toxicity, organism-based, Sprague-Dawley
Set-up: regimen Single, gender Male, age 6 weeks
Settings: in vivo, ip, 80 mg/kg, route intraperitoneal injection, dose level Low; for APTT / Bas / Eos / Fbg / Hb / Ht / Lym / MCH / MCHC / MCV / Mono / Neu / PT / Plat / RBC / Ret / WBC: tissue Blood; for KIDNEY_L / KIDNEY_R / KIDNEY_TOTAL: tissue Kidney; for LIVER: tissue Liver; for A/G / ALP / ALT / AST / BUN / CRE / Ca / Cl / DBIL / GLC / IP / K / LDH / Na / PL / RALB / TBIL / TC / TG / TP / gamma-GTP: tissue Plasma

SMILES: CCOC(=O)/C=C\C(=O)OCC [DIETHYL MALEATE]
- TERMINAL_BW (3 h): 197.8 g
- APTT (3 h): 16.6 s
- Bas (3 h): 0%
- Eos (3 h): 0.4%
- Fbg (3 h): 212.4 mg/dL
- Hb (3 h): 13.4 g/dL
- Ht (3 h): 40%
- Lym (3 h): 73.4%
- MCH (3 h): 22 pg
- MCHC (3 h): 33.5%
- MCV (3 h): 65.8 fL
- Mono (3 h): 6.6%
- Neu (3 h): 20%
- PT (3 h): 12.3 s
- Plat (3 h): 114.6 x10_4/uL
- RBC (3 h): 608.6 x10_4/ul
- Ret (3 h): 9.4%
- WBC (3 h): 97 x10_2/uL
- KIDNEY_L (3 h): 0.8 g
- KIDNEY_R (3 h): 0.9 g
- KIDNEY_TOTAL (3 h): 1.7 g
- LIVER (3 h): 9 g
- A/G (3 h): 1.9
- ALP (3 h): 802.4 IU/L
- ALT (3 h): 41.2 IU/L
- AST (3 h): 75.2 IU/L
- BUN (3 h): 14.8 mg/dL
- CRE (3 h): 0.5 mg/dL
- Ca (3 h): 11 mg/dL
- Cl (3 h): 106.6 meq/L
- DBIL (3 h): 0.032 mg/dL
- GLC (3 h): 194.2 mg/dL
- IP (3 h): 10.2 mg/dL
- K (3 h): 5.1 meq/L
- LDH (3 h): 80.8 IU/L
- Na (3 h): 140.4 meq/L
- PL (3 h): 150.4 mg/dL
- RALB (3 h): 3.6 g/dL
- TBIL (3 h): 0.4 mg/dL
- TC (3 h): 88 mg/dL
- TG (3 h): 33 mg/dL
- TP (3 h): 5.5 g/dL
- gamma-GTP (3 h): 1 IU/L
- TERMINAL_BW (6 h): 197.1 g
- APTT (6 h): 16.8 s
- Bas (6 h): 0%
- Eos (6 h): 0.6%
- Fbg (6 h): 207.2 mg/dL
- Hb (6 h): 13.1 g/dL
- Ht (6 h): 39.2%
- Lym (6 h): 76.2%
- MCH (6 h): 21.9 pg
- MCHC (6 h): 33.4%
- MCV (6 h): 65.4 fL
- Mono (6 h): 5.2%
- Neu (6 h): 17.8%
- PT (6 h): 12.2 s
- Plat (6 h): 116.6 x10_4/uL
- RBC (6 h): 599.8 x10_4/ul
- Ret (6 h): 9.5%
- WBC (6 h): 108.8 x10_2/uL
- KIDNEY_L (6 h): 0.9 g
- KIDNEY_R (6 h): 0.9 g
- KIDNEY_TOTAL (6 h): 1.7 g
- LIVER (6 h): 8.4 g
- A/G (6 h): 1.9
- ALP (6 h): 753.2 IU/L
- ALT (6 h): 36.4 IU/L
- AST (6 h): 76.2 IU/L
- BUN (6 h): 13 mg/dL
- CRE (6 h): 0.5 mg/dL
- Ca (6 h): 10.7 mg/dL
- Cl (6 h): 106.8 meq/L
- DBIL (6 h): 0.002 mg/dL
- GLC (6 h): 194 mg/dL
- IP (6 h): 10 mg/dL
- K (6 h): 4.8 meq/L
- LDH (6 h): 91 IU/L
- Na (6 h): 139.2 meq/L
- PL (6 h): 131.4 mg/dL
- RALB (6 h): 3.4 g/dL
- TBIL (6 h): 0.5 mg/dL
- TC (6 h): 73.4 mg/dL
- TG (6 h): 46 mg/dL
- TP (6 h): 5.3 g/dL
- gamma-GTP (6 h): 1 IU/L
- TERMINAL_BW (9 h): 197.4 g
- APTT (9 h): 16.7 s
- Bas (9 h): 0%
- Eos (9 h): 0.8%
- Fbg (9 h): 223.2 mg/dL
- Hb (9 h): 12.9 g/dL
- Ht (9 h): 38.5%
- Lym (9 h): 71.4%
- MCH (9 h): 21.7 pg
- MCHC (9 h): 33.6%
- MCV (9 h): 64.7 fL
- Mono (9 h): 3.8%
- Neu (9 h): 24%
- PT (9 h): 11.7 s
- Plat (9 h): 117.4 x10_4/uL
- RBC (9 h): 596.2 x10_4/ul
- Ret (9 h): 9.2%
- WBC (9 h): 102 x10_2/uL
- KIDNEY_L (9 h): 0.8 g
- KIDNEY_R (9 h): 0.9 g
- KIDNEY_TOTAL (9 h): 1.7 g
- LIVER (9 h): 8 g
- A/G (9 h): 2.2
- ALP (9 h): 735 IU/L
- ALT (9 h): 35.2 IU/L
- AST (9 h): 73.4 IU/L
- BUN (9 h): 12.6 mg/dL
- CRE (9 h): 0.4 mg/dL
- Ca (9 h): 10.5 mg/dL
- Cl (9 h): 107.2 meq/L
- DBIL (9 h): 0.026 mg/dL
- GLC (9 h): 204.6 mg/dL
- IP (9 h): 9.6 mg/dL
- K (9 h): 4.7 meq/L
- LDH (9 h): 89.4 IU/L
- Na (9 h): 139.6 meq/L
- PL (9 h): 137.8 mg/dL
- RALB (9 h): 3.6 g/dL
- TBIL (9 h): 0.3 mg/dL
- TC (9 h): 79.4 mg/dL
- TG (9 h): 41 mg/dL
- TP (9 h): 5.3 g/dL
- gamma-GTP (9 h): 1.4 IU/L
- TERMINAL_BW (24 h): 209.5 g
- APTT (24 h): 15.5 s
- Bas (24 h): 0%
- Eos (24 h): 0.8%
- Fbg (24 h): 225.8 mg/dL
- Hb (24 h): 12.9 g/dL
- Ht (24 h): 38.7%
- Lym (24 h): 79.4%
- MCH (24 h): 21.6 pg
- MCHC (24 h): 33.4%
- MCV (24 h): 64.7 fL
- Mono (24 h): 4.6%
- Neu (24 h): 15.2%
- PT (24 h): 11.8 s
- Plat (24 h): 123.2 x10_4/uL
- RBC (24 h): 598.4 x10_4/ul
- Ret (24 h): 9.8%
- WBC (24 h): 94.6 x10_2/uL
- KIDNEY_L (24 h): 0.9 g
- KIDNEY_R (24 h): 0.9 g
- KIDNEY_TOTAL (24 h): 1.8 g
- LIVER (24 h): 10 g
- A/G (24 h): 2.1
- ALP (24 h): 887.2 IU/L
- ALT (24 h): 36 IU/L
- AST (24 h): 63.6 IU/L
- BUN (24 h): 17.4 mg/dL
- CRE (24 h): 0.5 mg/dL
- Ca (24 h): 11.1 mg/dL
- Cl (24 h): 106 meq/L
- DBIL (24 h): 0.03 mg/dL
- GLC (24 h): 195.8 mg/dL
- IP (24 h): 8 mg/dL
- K (24 h): 5 meq/L
- LDH (24 h): 94.4 IU/L
- Na (24 h): 139.6 meq/L
- PL (24 h): 148.8 mg/dL
- RALB (24 h): 3.7 g/dL
- TBIL (24 h): 0.3 mg/dL
- TC (24 h): 82.6 mg/dL
- TG (24 h): 93 mg/dL
- TP (24 h): 5.5 g/dL
- gamma-GTP (24 h): 1.6 IU/L
